Measured values taken from PubChem BioAssay AID248 (DTP/NCI, 2004).
“And” between values parts separate entries of the source, which are not always exact repeats. Equal values may be shown once. Inconclusive results and toxic doses are left out. No stated cut-off is given here; in the data, active means T/C of 150% or more; inactive means T/C below 125%.

Tested on: L1210 leukemia ip in BDF1 mice, survival T/C
Experiment: NCI In Vivo Anticancer Drug Screen. Data for tumor model L1210 Leukemia (intraperitoneal) in B6D2F1 (BDF1) mice
Settings: endpoint: mean survival time, higher = longer survival
How it was run: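 Transplantable tumor model; survival measured in treated vs vehicle control mice. Value = treated/control.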

[1] = dose: 50.0 mg/kg/injection, schedule: Q01DX009 (ip), vehicle: saline with Tween-80
[2] = dose: 100.0 mg/kg/injection, schedule: Q01DX009 (ip), vehicle: saline with Tween-80
[3] = dose: 100.0 mg/kg/injection, schedule: Q04DX003 (ip), vehicle: saline with Tween-80
[4] = dose: 200.0 mg/kg/injection, schedule: Q04DX003 (ip), vehicle: saline with Tween-80
[5] = dose: 100.0 mg/kg/injection, schedule: Q01DX009 (ip), vehicle: Klucel (hydroxypropylcellulose) (HPC)
[6] = dose: 200.0 mg/kg/injection, schedule: Q01DX009 (ip), vehicle: Klucel (hydroxypropylcellulose) (HPC)
[7] = dose: 100.0 mg/kg/injection, schedule: Q01DX001 (ip), vehicle: saline
[8] = dose: 200.0 mg/kg/injection, schedule: Q01DX001 (ip), vehicle: saline
[9] = dose: 400.0 mg/kg/injection, schedule: Q01DX001 (ip), vehicle: saline
[10] = dose: 100.0 mg/kg/injection, schedule: Q04DX003 (ip), vehicle: Klucel (hydroxypropylcellulose) (HPC)
[11] = dose: 200.0 mg/kg/injection, schedule: Q04DX003 (ip), vehicle: Klucel (hydroxypropylcellulose) (HPC)
[12] = dose: 400.0 mg/kg/injection, schedule: Q01DX009 (ip), vehicle: Klucel (hydroxypropylcellulose) (HPC)
[13] = dose: 400.0 mg/kg/injection, schedule: Q04DX003 (ip), vehicle: Klucel (hydroxypropylcellulose) (HPC)

Measured: T/C

CCNC(C)(C)C(S)c1ccc(Cl)s1 (configuration not stated)
inactive: [1] 106 % of control | [2] 114 % of control | [3] 103 % of control | [4] 94 % of control

CC(=O)Nc1ccc(OC(=O)Nc2cc(C(F)(F)F)ccc2Cl)cc1
inactive: [5] 93 % of control | [6] 111 % of control

CCCCCCCCCCCCCCCCc1ccc(O)cc1O
inactive: dose: 12.5 mg/kg/injection, schedule: Q04DX003 (ip), vehicle: Klucel (hydroxypropylcellulose) (HPC) 103 % of control | dose: 25.0 mg/kg/injection, schedule: Q01DX009 (ip), vehicle: saline with Tween-80 100 % of control | dose: 25.0 mg/kg/injection, schedule: Q04DX003 (ip), vehicle: Klucel (hydroxypropylcellulose) (HPC) 95 % of control | [1] 105 % of control | dose: 50.0 mg/kg/injection, schedule: Q04DX003 (ip), vehicle: Klucel (hydroxypropylcellulose) (HPC) 95 % of control | [2] 95 % of control | [3] 94 % of control

CC(C)(C)C(=O)CC(=O)C(C)(C)C
inactive: [7] 101 % of control | dose: 100.0 mg/kg/injection, schedule: Q01DX009 (ip), vehicle: other 92 % of control | [2] 91 % of control | dose: 100.0 mg/kg/injection, schedule: Q04DX002 (ip), vehicle: other 102 % of control | dose: 100.0 mg/kg/injection, schedule: Q04DX002 (ip), vehicle: saline 116 % of control | [3] 103 % of control | dose: 100.0 mg/kg/injection, schedule: Q04DX003 (ip), vehicle: saline 98 % of control | [8] 110 % of control | dose: 200.0 mg/kg/injection, schedule: Q01DX009 (ip), vehicle: other 97 % of control | dose: 200.0 mg/kg/injection, schedule: Q01DX009 (ip), vehicle: saline with Tween-80 97 % of control | dose: 200.0 mg/kg/injection, schedule: Q04DX002 (ip), vehicle: other 97 % of control | dose: 200.0 mg/kg/injection, schedule: Q04DX002 (ip), vehicle: saline 101 % of control | [4] 103 % of control | dose: 200.0 mg/kg/injection, schedule: Q04DX003 (ip), vehicle: saline 103 % of control | [9] 102 % of control | dose: 400.0 mg/kg/injection, schedule: Q01DX009 (ip), vehicle: other 97 % of control | dose: 400.0 mg/kg/injection, schedule: Q01DX009 (ip), vehicle: saline with Tween-80 91 % of control | dose: 400.0 mg/kg/injection, schedule: Q04DX002 (ip), vehicle: other 102 % of control | dose: 400.0 mg/kg/injection, schedule: Q04DX002 (ip), vehicle: saline 108 % of control | dose: 400.0 mg/kg/injection, schedule: Q04DX003 (ip), vehicle: saline 95 % of control

CCOC(=O)C(COC)C(C(=O)CC)C(=O)OCC (configuration not stated)
inactive: dose: 100.0 mg/kg/injection, schedule: Q01DX001 (ip), vehicle: other 102 % of control | dose: 200.0 mg/kg/injection, schedule: Q01DX001 (ip), vehicle: other 89 % of control | dose: 400.0 mg/kg/injection, schedule: Q01DX001 (ip), vehicle: other 96 % of control

O=C(NCCBr)Nc1cccc2c1Cc1ccccc1-2
inactive: [5] 105 % of control | [10] 95 % of control | [6] 96 % of control | [11] 95 % of control | [12] 94 % of control | [13] 97 % of control

O=C(O)/C=C(\CC(=O)O)C(=O)O
inactive: dose: 100.0 mg/kg/injection, schedule: Q01DX001 (ip), vehicle: Klucel (hydroxypropylcellulose) (HPC) 95 % of control | [7] 92 % of control | [8] 90 % of control | dose: 400.0 mg/kg/injection, schedule: Q01DX001 (ip), vehicle: Klucel (hydroxypropylcellulose) (HPC) 95 % of control | [9] 98 % of control

C=CC[P+](Cc1ccccc1)(c1ccccc1)c1ccccc1
inactive: dose: 3.13 mg/kg/injection, schedule: Q01DX009 (ip), vehicle: saline with Tween-80 98 % of control | dose: 6.25 mg/kg/injection, schedule: Q01DX009 (ip), vehicle: saline with Tween-80 107 % of control | dose: 12.5 mg/kg/injection, schedule: Q01DX009 (ip), vehicle: saline with Tween-80 104 % of control and 115 % of control

NNC(=O)Nc1cccnc1
inactive: dose: 75.0 mg/kg/injection, schedule: Q01DX009 (ip), vehicle: saline 106 % of control

CNC(=O)OCC1=C(OC)C(=O)C(OC)=CC1=O
inactive: dose: 12.5 mg/kg/injection, schedule: Q01DX009 (ip), vehicle: other 90 % of control | dose: 12.5 mg/kg/injection, schedule: Q04DX003 (ip), vehicle: other 97 % of control | dose: 25.0 mg/kg/injection, schedule: Q01DX009 (ip), vehicle: other 92 % of control | dose: 25.0 mg/kg/injection, schedule: Q04DX003 (ip), vehicle: other 96 % of control | dose: 50.0 mg/kg/injection, schedule: Q01DX009 (ip), vehicle: other 90 % of control | dose: 50.0 mg/kg/injection, schedule: Q04DX003 (ip), vehicle: other 100 % of control

CC(C)CNc1ccc(S(=O)(=O)c2ccc(NCC(C)C)c([N+](=O)[O-])c2)cc1[N+](=O)[O-]
inactive: dose: 3.12 mg/kg/injection, schedule: Q01DX009 (ip), vehicle: DMSO 92 % of control | dose: 6.25 mg/kg/injection, schedule: Q01DX009 (ip), vehicle: DMSO 89 % of control | dose: 12.5 mg/kg/injection, schedule: Q01DX009 (ip), vehicle: DMSO 105 % of control | dose: 25.0 mg/kg/injection, schedule: Q01DX005 (ip), vehicle: DMSO 92 % of control | dose: 25.0 mg/kg/injection, schedule: Q01DX009 (ip), vehicle: DMSO 88 % of control | dose: 50.0 mg/kg/injection, schedule: Q01DX005 (ip), vehicle: DMSO 92 % of control | dose: 100.0 mg/kg/injection, schedule: Q01DX005 (ip), vehicle: DMSO 90 % of control | dose: 100.0 mg/kg/injection, schedule: Q04DX002 (ip), vehicle: DMSO 96 % of control | dose: 200.0 mg/kg/injection, schedule: Q04DX002 (ip), vehicle: DMSO 111 % of control | dose: 400.0 mg/kg/injection, schedule: Q04DX002 (ip), vehicle: DMSO 107 % of control

O=C(Nc1ccc(-c2nc3nc[nH]c(=O)c3[nH]2)cc1)c1cccc(S(=O)(=O)F)c1
inactive: dose: 100.0 mg/kg/injection, schedule: Q01DX001 (ip), vehicle: saline with Tween-80 96 % of control | dose: 200.0 mg/kg/injection, schedule: Q01DX001 (ip), vehicle: saline with Tween-80 96 % of control | dose: 400.0 mg/kg/injection, schedule: Q01DX001 (ip), vehicle: saline with Tween-80 92 % of control

CC(=O)c1ccc(Cc2ccc(C(C)=O)cc2)cc1
inactive: [5] 98 % of control | [6] 98 % of control | [12] 106 % of control

Nc1ccc(N(S(=O)(=O)c2ccccc2)S(=O)(=O)c2ccccc2)nc1
inactive: [5] 95 % of control | [10] 98 % of control | [6] 100 % of control | [11] 97 % of control | [12] 106 % of control | [13] 103 % of control

CCN(CC)CCNCCCS(=O)(=O)c1ccc(NC(C)=O)cc1
inactive: [7] 97 % of control | [8] 97 % of control | [9] 97 % of control

Cc1ccc(NCc2nc(N)nc(Nc3ccccc3)n2)cc1
inactive: [3] 97 % of control | [4] 92 % of control | dose: 400.0 mg/kg/injection, schedule: Q04DX003 (ip), vehicle: saline with Tween-80 93 % of control

Cc1ccnc(NS(=O)(=O)c2ccc(N=Nc3c(N)nc(N)nc3N)cc2)n1
inactive: [7] 92 % of control | [8] 97 % of control | [9] 121 % of control

C[n+]1c2ccccc2cc2ccc(N=[N+]=[N-])cc21
inactive: dose: 6.25 mg/kg/injection, schedule: Q01DX009 (ip), vehicle: saline 101 % of control | dose: 6.25 mg/kg/injection, schedule: Q04DX003 (ip), vehicle: saline 101 % of control | dose: 12.5 mg/kg/injection, schedule: Q01DX001 (ip), vehicle: saline 97 % of control | dose: 12.5 mg/kg/injection, schedule: Q01DX009 (ip), vehicle: saline 98 % of control | dose: 12.5 mg/kg/injection, schedule: Q04DX003 (ip), vehicle: saline 100 % of control | dose: 25.0 mg/kg/injection, schedule: Q01DX001 (ip), vehicle: saline 97 % of control | dose: 25.0 mg/kg/injection, schedule: Q01DX009 (ip), vehicle: saline 98 % of control | dose: 25.0 mg/kg/injection, schedule: Q04DX003 (ip), vehicle: saline 111 % of control | dose: 35.0 mg/kg/injection, schedule: Q01DX009 (ip), vehicle: saline 104 % of control
